Tested on: NCI-H226 squamous carcinoma
Test: Induced-tumor NOD/SCID mouse model, comparison to cisplatin (Example 8)
Type: in vivo, NOD/SCID mice
Description: A standard induced-tumor NOD/SCID mouse model was used to perform this investigation, with the mouse model being based on protocols for human xenograft systems developed at the National Cancer Institute. H226 cell cancer tumors were induced in NOD/SCID mice; tumors at sizes approximately 100 mm^3 were treated with 30 mg/kg MT103 or a control containing only vehicle (2.5% DMSO in distilled water) administered in intraperitoneal injections every other day for two weeks.
This experiment provides in vivo test data showing that the MT103 family of compounds are effective anti-cancer agents. […] MT103 was tested at three dose levels (60, 120, and 240 mg/kg). Experiments were performed as described in Example 7, NOD/SCID mice, (NOD.CB17-Prkdcscid/J) except that tumors were treated with: one of three doses of MT103 or Cisplatin or sham for 3 intraperitoneal injections (one every 4 days) in a 2-cycle 56-day test that was extended to another cycle to 86 days, as reflected in FIG. 5. Tumor volumes were measured every other day.

## CC1(C)C2CC[C@@]1(CS(=O)(=O)N(C1CCCCC1)C1CCCCC1)C(O)C2 (some centres unmarked) [MT103]
120 mg/kg versus control
  blood counts and electrolytes: no differences in blood counts and electrolytes
  organ appearance: no observable differences in organ appearance
120 mg/kg, among the range of doses tested
  improvement compared to cisplatin: most improvement compared to cisplatin
60, 120, 240 mg/kg, 3 intraperitoneal injections (one every 4 days) per cycle, p=0.046, FIG. 5
  mean tumor growth: mean tumor growth slowed
Depending upon the dosages administered (60, 120, 240 mg/kg)
  effect in comparison to cisplatin: comparable or superior effect
